Experimental findings from ChEMBL document CHEMBL1201862, “PubChem BioAssay data set” (2004) are described below.

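Dose response: 5 concentrations. Exposure: 48 h. Format: 96-well plates. Endpoint: linear interpolation; highest concentration if not reached. Abbreviation: GI50, concentration required for 50% inhibition of growth.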 Activity calls are given as the source filed them. Rule as the data show it: active = GI50 up to about 1.1 µM and inactive = higher.

Among the test systems are CAKI-1; SK-MEL-5; SF-295; NCI-H460; HCT-116; OVCAR-4; NCI-H226; ACHN; TK-10; MDA-MB-231; M14; HT-29; NCI/ADR-RES; SNB-75; OVCAR-8; HL-60; SF-539; OVCAR-5; SF-268; NCI-H522.
Holding throughout (experiment): inhibition of tumour cell growth, NCI panel, 48 h

In the case of `Cn1c(=O)n2c(-c3ccccc3)c(-c3ccccc3)n2c1=O`, the GI50 with CAKI-1, with SK-MEL-5, in the test with SF-295, with NCI-H460, in the test with HCT-116 and with OVCAR-4 was > 100 µM (inactive) each time. For the same compound, the GI50 with NCI-H226, in the test with ACHN, in the test on TK-10, in the test on MDA-MB-231, with M14 and in the test on HT-29 was > 100 µM (inactive) throughout. Also, the GI50 with NCI/ADR-RES is > 100 µM (inactive); in the test on SNB-75, 99.1 µM (inactive); with OVCAR-8 it was > 100 µM (inactive); with HL-60 it was 46.9 µM (inactive); in the test with SF-539, > 100 µM (inactive); in the test on OVCAR-5, > 100 µM (inactive).
Turning to `CCOC(=O)COc1cc(-c2ccccc2F)nc2cc3c(cc12)OCO3`, the GI50 in the test on CAKI-1 is > 100 µM (inactive); in the test on SK-MEL-5, 71.9 µM (inactive); in the test on SF-295 it was > 100 µM (inactive); with HCT-116, 72.3 µM (inactive); in the test with NCI-H226 it was > 100 µM (inactive); with ACHN it was > 100 µM (inactive). Also, the GI50 with SF-268, with TK-10, in the test on MDA-MB-231, with M14, in the test with HT-29 and in the test with NCI/ADR-RES was > 100 µM (inactive) in each case. Besides, the GI50 is 59.4 µM (inactive) in the test with SNB-75, > 100 µM (inactive) in the test on OVCAR-8, > 100 µM (inactive) in the test on SF-539 and > 100 µM (inactive) with OVCAR-5.
As for `O=C1C(C(O)(C(F)(F)Cl)C(F)(F)Cl)CCCC1C(O)(C(F)(F)Cl)C(F)(F)Cl` (stereo not given), the GI50 with CAKI-1, in the test with SK-MEL-5, in the test on SF-295, in the test with NCI-H522, in the test on NCI-H460 and in the test with HCT-116 was > 10 µM (inactive) in each case. Moreover, the GI50 with OVCAR-4, with NCI-H226, in the test with ACHN, in the test with SF-268, in the test with TK-10 and with MDA-MB-231 was > 10 µM (inactive) in each case. Further, the GI50 in the test with M14, with HT-29, with NCI/ADR-RES, with OVCAR-8, in the test on SF-539 and with OVCAR-5 was > 10 µM (inactive) each time.
`C=CCOC(=O)C1=C(CCC[C@@H](C)O[Si](C)(C)C(C)(C)C)N=C(N)N2[C@H](CCO)CC[C@@H]12`: the GI50 was 13.4 µM (inactive) in the test on CAKI-1; 12.4 µM (inactive) with SK-MEL-5; 12.6 µM (inactive) in the test with SF-295; 12.7 µM (inactive) in the test with NCI-H522; 12.9 µM (inactive) with NCI-H460; 8.28 µM (inactive) in the test on HCT-116. The GI50 in the test on OVCAR-4 was 10.5 µM (inactive); in the test on NCI-H226, 18.5 µM (inactive); in the test on ACHN, 17.7 µM (inactive); with SF-268, 17.3 µM (inactive); with TK-10, 16.9 µM (inactive); in the test with MDA-MB-231, 15.3 µM (inactive). Also, the GI50 with M14 was 13.9 µM (inactive); in the test on NCI/ADR-RES, 19.7 µM (inactive); in the test on SNB-75, 16.4 µM (inactive).
In the case of `CC1(C)CC(=O)c2c(nc3ccc4ccccc4c3c2-c2ccc(NC(=O)CCCC(=O)Nc3ccc(-c4c5c(nc6ccc7ccccc7c46)CC(C)(C)CC5=O)cc3)cc2)C1`, the GI50 in the test with CAKI-1, in the test with SK-MEL-5, in the test on SF-295, with NCI-H460, with HCT-116 and in the test on NCI-H226 was > 100 µM (inactive) each time. The GI50 with ACHN, with SF-268, in the test with TK-10, with MDA-MB-231, in the test with M14 and in the test with HT-29 was > 100 µM (inactive) each time. Besides, the GI50 was > 100 µM (inactive) in the test with NCI/ADR-RES; 41.6 µM (inactive) with SNB-75; > 100 µM (inactive) in the test with OVCAR-8; 5.94 µM (inactive) in the test on HL-60; > 100 µM (inactive) in the test with SF-539; > 100 µM (inactive) in the test with OVCAR-5.
With `CC1CN=C(N(C)C(=O)Nc2ccc(Cl)cc2)S1` (stereo not given), the GI50 with CAKI-1 is 3.64 µM (inactive); in the test with SK-MEL-5, 9.04 µM (inactive); in the test with SF-295 it was 5.14 µM (inactive); in the test with NCI-H460 it was 3.77 µM (inactive); in the test on HCT-116, 4.89 µM (inactive); in the test with OVCAR-4, 65.2 µM (inactive). The GI50 was 1.3 µM (inactive) with ACHN; 41.5 µM (inactive) in the test with SF-268; 29.1 µM (inactive) in the test on TK-10; 32.1 µM (inactive) with MDA-MB-231; 1.72 µM (inactive) with M14; 31.3 µM (inactive) in the test on HT-29. Moreover, the GI50 is 1.9 µM (inactive) in the test on NCI/ADR-RES; > 100 µM (inactive) in the test with SNB-75; 45.7 µM (inactive) in the test on OVCAR-8; 15.7 µM (inactive) in the test with HL-60; 10.6 µM (inactive) in the test on SF-539; 4.47 µM (inactive) with OVCAR-5.
Regarding `Oc1ccc(/C=N/N=c2\[nH][nH]/c(=N\N=C\c3ccc(O)cc3O)c3ccccc23)c(O)c1`, the GI50 is 0.268 µM (active) in the test on CAKI-1; 0.236 µM (active) with SK-MEL-5; 0.295 µM (active) in the test with SF-295; 0.355 µM (active) in the test on NCI-H460; 0.313 µM (active) with HCT-116; 0.21 µM (active) in the test with ACHN. Moreover, the GI50 in the test on SF-268 is 0.126 µM (active); in the test on MDA-MB-231, 0.401 µM (active); with M14 it was 0.318 µM (active); with HT-29, 0.331 µM (active); with NCI/ADR-RES, 0.427 µM (active); in the test with OVCAR-8, 0.25 µM (active). Also, the GI50 with HL-60 is 0.271 µM (active); with SF-539, 0.294 µM (active); in the test with OVCAR-5, 0.422 µM (active).
As to `CC(Cc1ccc(Cl)cc1Cl)NO` (stereo not given), the GI50 in the test with CAKI-1 is > 100 µM (inactive); in the test on SK-MEL-5, 95.7 µM (inactive); in the test with SF-295, > 100 µM (inactive); in the test with NCI-H522, 66.5 µM (inactive); in the test with HCT-116, 83.6 µM (inactive); in the test on OVCAR-4 it was > 100 µM (inactive). The GI50 is 46.3 µM (inactive) in the test on NCI-H226; > 100 µM (inactive) in the test with ACHN; > 100 µM (inactive) with SF-268; > 100 µM (inactive) in the test with TK-10; > 100 µM (inactive) in the test on MDA-MB-231; > 100 µM (inactive) with M14. In addition, the GI50 in the test with HT-29 is > 100 µM (inactive); with NCI/ADR-RES, > 100 µM (inactive); with SNB-75 it was 94 µM (inactive); in the test with OVCAR-8, > 100 µM (inactive); in the test with OVCAR-5, > 100 µM (inactive).
